Test results from patent US8586505B2 (SDS Biotech K. K., priority 2009, dated 2013).

Experiments:
[1] = tested on: Phytophthora infestans; experiment: whole plant or invertebrate; type: in vivo; conditions: in Solanum lycopersicum, 96 h, read-out: Determination of control effect (preventive value)
[2] = tested on: Sphaerotheca fuliginea; experiment: Test of examining control effect on Sphaerotheca fuliginea (potted cucumber plants); type: in vivo; conditions: Podosphaera fuliginea, 336 h; 10% wettable powder adjusted to 125 ppm, 15 ml/pot sprayed on potted cucumber plants one day before spray inoculation; assessed after 14 days in greenhouse; read-out: Determination of control effect (preventive value) on Sphaerotheca fuliginea
Summary of the method: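 Cucumber plants (Sagamihanjiro, 2nd leaf stage) sprayed with 125 ppm compound (from 10% wettable powder), inoculated one day later with S. fuliginea conidia (1.0×10^5 cells/ml); lesion area scored after 14 days in greenhouse. Preventive value vs untreated; ≥60% high, <60% low control.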

[3] = tested on: Tetranychus urticae eggs; experiment: Test of examining effect on Tetranychus urticae eggs (ovicidal rate); type: in vivo; conditions: 144 h, 0.4 ml sprayed, unhatched eggs counted six days later, read-out: Determination (ovicidal rate)
Experimental: Thereafter, the released female adults were removed. […] Six days later, the number of unhatched eggs was counted, and an ovicidal rate was calculated.

[4] = tested on: Pseudoperonospora cubensis; experiment: Test of examining control effect on Pseudoperonospora cubensis (potted cucumber plants); type: in vivo; conditions: 96 h, 10% wettable powder adjusted to 125 ppm, 15 ml/pot sprayed on potted cucumber plants one day before spray inoculation, assessed after 1 day wet chamber and 3 days greenhouse, read-out: Determination of control effect (preventive value) on Pseudoperonospora cubensis
Summary of the method: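 Cucumber plants (Sagamihanjiro, 2.5-leaf stage) sprayed with 125 ppm compound solution from 10% wettable powder, 15 ml/pot. One day later, spray-inoculated with P. cubensis conidia (1.0×10^4 cells/ml), kept 1 day at 21° C wet, then 3 days in greenhouse. Preventive value derived from lesion area relative to untreated plants.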

| Structure (SMILES) | pest or weed control at 125 ppm [1] [%] | pest or weed control at 125 µg/mL [2] [%] | pest or weed control at 250 ppm [3] [%] | pest or weed control at 125 µg/mL [4] [%] | melting point [°C] |
| --- | --- | --- | --- | --- | --- |
| C(#Cc1ccccc1)CCNc1ncnc2sccc12 [compound 10, 4-(4-Phenyl-3-butynylamino)thieno[2,3-d]pyrimidine] | 60 to 100 | 60 to 100 | 60 to 80 | 60 to 100 |  |
| Clc1ccc(C#CCCNc2ncnc3sccc23)cc1 [compound 16] | 0 to 60 | 60 to 100 | 60 to 80 | 60 to 100 |  |
| Cc1ccc(C#CCCNc2ncnc3sccc23)cc1 [compound 19] | 0 to 60 | 60 to 100 | 60 to 80 | 60 to 100 |  |
| CC(C)(C)c1ccc(C#CCCNc2ncnc3sccc23)cc1 [compound 20] | 0 to 60 | 60 to 100 | 60 to 80 | 60 to 100 |  |
| COc1cccc(C#CCCNc2ncnc3sccc23)c1 [compound 22] | 0 to 60 | 60 to 100 | 60 to 80 | 60 to 100 |  |
| O=[N+]([O-])c1ccccc1C#CCCNc1ncnc2sccc12 [compound 38] | 60 to 100 |  | 60 to 80 | 60 to 100 |  |
| C=C(C#CCCNc1ncnc2ccccc12)c1ccccc1 [compound 95] | 0 to 60 | 0 to 60 | 60 to 80 | 60 to 100 |  |
| C(#Cc1ccc(C2CCCCC2)cc1)CCNc1ncnc2ccccc12 [compound 109] | 0 to 60 | 60 to 100 | 80 to 95 | 60 to 100 |  |
| FC(F)=Cc1ccc(C#CCCNc2ncnc3ccccc23)cc1 [compound 113] | 0 to 60 | 60 to 100 | ≥ 95 | 60 to 100 |  |
| CC(CC#Cc1ccccc1Cl)Nc1ncnc2sccc12 (stereo not drawn) [compound 231] | 60 to 100 | 60 to 100 | 60 to 80 | 60 to 100 |  |
| CC(CC#Cc1ccc(Cl)cc1)Nc1ncnc2sccc12 (stereo not drawn) [compound 232] | 60 to 100 | 60 to 100 | 80 to 95 | 60 to 100 |  |
| CC(CC#Cc1ccccc1C(F)(F)F)Nc1ncnc2sccc12 (stereo not drawn) [compound 233] | 60 to 100 | 60 to 100 | 80 to 95 | 60 to 100 |  |
| CC(CC#Cc1ccc(C(F)(F)F)cc1)Nc1ncnc2sccc12 (stereo not drawn) [compound 235] | 60 to 100 | 60 to 100 | ≥ 95 | 60 to 100 |  |
| CC(CC#Cc1ccc(S(F)(F)(F)(F)F)cc1)Nc1ncnc2sccc12 (stereo not drawn) [compound 238] | 60 to 100 | 60 to 100 | ≥ 95 | 60 to 100 |  |
| CCc1ccc(C#CCC(C)Nc2ncnc3sccc23)cc1 (stereo not drawn) [compound 240] | 60 to 100 |  | 60 to 80 | 60 to 100 |  |
| CC(CC#Cc1c(Cl)cc(C(F)(F)F)cc1Cl)Nc1ncnc2sccc12 (stereo not drawn) [compound 262] |  | 60 to 100 | ≥ 95 | 60 to 100 |  |
| Clc1ncnc(NCCC#Cc2ccccc2)c1Cc1ccccc1 [compound 372] | 0 to 60 | 0 to 60 |  | 0 to 60 | 157 to 158 |
| C(#Cc1ccccc1)CCNc1ncnc2[nH]cnc12 [compound 378] | 0 to 60 | 0 to 60 |  | 0 to 60 | 207 to 208 |
